Measurements from patent US8722849B2, “Polypeptides” (Novo Nordisk A/S, priority 2011, dated 2014).
In brackets after ≈: the same amount, converted by molar mass. Where two headings read alike, the source gives them in different places. Starred links: 1 amine or outer side, 2 acyl side, 3 side chain; linkers in the order of their positions; H or OH if unused. Positions of bridges follow the written chain, without caps; N, C: chain ends. Residues, ends and D or L forms follow the SMILES beside them. Groups on a side chain read outwards from the residue. *: point of attachment. C20 diacid = O=C(O)CCCCCCCCCCCCCCCCCCC(=O)*; γGlu = O=C(O)[C@H](CCC(=O)[*:2])N[*:1]; AEEA = NCCOCCOCC(=O)O

Experiment: Assay (IV) determination of solubility
Assay type: physicochemical
Procedure: ASSAY (IV)—Determination of Solubility
The polypeptide was dissolved in water at ˜500 nmol/ml and mixed 1:1 with a series of buffers (100 mM glycylglycine pH 3.0, 100 mM glycylglycine pH 4.0, 100 mM glycylglycine pH 5.0, 100 mM bistrispropane pH 6.0, 100 mM bistrispropane pH 6.5, 100 mM bistrispropane pH 7.0, 100 mM bistrispropane pH 7.5, 100 mM bistrispropane pH 8.0). After 18 hours at room temperature the samples were centrifuged and the polypeptide concentration determined by HPLC.

[1] = pH 3, pH 3.0, read-out: Solubility pH 3.0
[2] = pH 4, pH 4.0, 18 hours at room temperature, Table 2, read-out: Solubility pH 4.0
[3] = pH 4, pH 4.0, read-out: Solubility pH 4.0
[4] = pH 5, pH 5.0, read-out: Solubility pH 5.0
[5] = pH 6, pH 6.0, read-out: Solubility pH 6.0
[6] = pH 6.5, pH 6.5, read-out: Solubility pH 6.5
[7] = pH 7, pH 7.0, read-out: Solubility pH 7.0
[8] = pH 7.5, pH 7.5, read-out: Solubility pH 7.5

solubility [1]	solubility [2]	solubility [3]	solubility [4]	solubility [5]	solubility [6]	solubility [7]	solubility [8]	Structure (SMILES)
> 200 µM	> 200 µM	> 200 µM	185 µM (≈ 884 µg/mL)	118 µM (≈ 564 µg/mL)	1 µM (≈ 4.78 µg/mL)	1 µM (≈ 4.78 µg/mL)	1 µM (≈ 4.78 µg/mL)	CC[C@H](C)[C@H](NC(=O)[C@H](CCCCNC(=O)COCCOCCNC(=O)COCCOCCNC(=O)CC[C@H](NC(=O)CCCCCCCCCCCCCCCCCCC(=O)O)C(=O)O)NC(=O)CNC(=O)[C@H](Cc1ccccc1)NC(=O)[C@H](CC(N)=O)NC(=O)[C@H](CC(N)=O)NC(=O)[C@H](CO)NC(=O)[C@H](CO)NC(=O)[C@H](Cc1c[nH]cn1)NC(=O)[C@H](Cc1c[nH]cn1)NC(=O)[C@H](CC(C)C)NC(=O)[C@H](Cc1ccccc1)NC(=O)[C@H](CCC(=O)O)NC(=O)[C@H](C)NC(=O)[C@H](CC(C)C)NC(=O)[C@H](CCCNC(=N)N)NC(=O)[C@H](CCC(N)=O)NC(=O)[C@@H](NC(=O)[C@H](C)NC(=O)[C@@H]1CSSC[C@H](NC(=O)[C@@H](N)CCCCN)C(=O)N[C@@H](CC(N)=O)C(=O)N[C@@H]([C@@H](C)O)C(=O)N[C@@H](C)C(=O)N[C@@H]([C@@H](C)O)C(=O)N1)[C@@H](C)O)C(=O)N[C@@H](CC(C)C)C(=O)N[C@@H](CO)C(=O)N[C@@H](CO)C(=O)N[C@H](C(=O)N[C@@H](CC(N)=O)C(=O)N[C@H](C(=O)NCC(=O)N[C@@H](CO)C(=O)N[C@@H](Cc1c[nH]cn1)C(=O)N[C@H](C(=O)N[C@@H](Cc1ccc(O)cc1)C(N)=O)[C@@H](C)O)C(C)C)[C@@H](C)O [Example 142, N-epsilon25-[2-(2-{2-[2-(2-{2-[(S)-4-Carboxy-4-(19-carboxyheptadecanoylamino)butyrylamino]ethoxy}ethoxy)acetylamino]ethoxy}ethoxy)acetyl]-[Glu14,His17,Lys25,Ser28,Ser29,His35]-pramlintide] (H-KCNTATCATQRLAEFLHHSSNNFGK([AEEA-AEEA-γGlu-C20 diacid])ILSSTNVGSHTY-NH2; disulfide 2-7)
> 200 µM	> 200 µM	> 200 µM	> 200 µM	47 µM (≈ 224 µg/mL)	2 µM (≈ 9.55 µg/mL)	1 µM (≈ 4.77 µg/mL)	1 µM (≈ 4.77 µg/mL)	CC[C@H](C)[C@H](NC(=O)[C@@H]1CCCN1C(=O)CNC(=O)[C@H](Cc1ccccc1)NC(=O)[C@H](CC(N)=O)NC(=O)[C@H](CCCCNC(=O)COCCOCCNC(=O)COCCOCCNC(=O)CC[C@H](NC(=O)CCCCCCCCCCCCCCCCCCC(=O)O)C(=O)O)NC(=O)[C@H](CO)NC(=O)[C@H](CO)NC(=O)[C@H](Cc1c[nH]cn1)NC(=O)[C@H](Cc1c[nH]cn1)NC(=O)[C@H](CC(C)C)NC(=O)[C@H](Cc1ccccc1)NC(=O)[C@H](CCC(=O)O)NC(=O)[C@H](C)NC(=O)[C@H](CC(C)C)NC(=O)[C@H](CCCNC(=N)N)NC(=O)[C@H](CCC(N)=O)NC(=O)[C@@H](NC(=O)[C@H](C)NC(=O)[C@@H]1CSSC[C@H](NC(=O)[C@@H](N)CCCCN)C(=O)N[C@@H](CC(N)=O)C(=O)N[C@@H]([C@@H](C)O)C(=O)N[C@@H](C)C(=O)N[C@@H]([C@@H](C)O)C(=O)N1)[C@@H](C)O)C(=O)N[C@@H](CC(C)C)C(=O)N[C@@H](CO)C(=O)N1CCC[C@H]1C(=O)N[C@H](C(=O)N[C@@H](CC(N)=O)C(=O)N[C@H](C(=O)NCC(=O)N[C@@H](CO)C(=O)N[C@@H](Cc1c[nH]cn1)C(=O)N[C@H](C(=O)N[C@@H](Cc1ccc(O)cc1)C(N)=O)[C@@H](C)O)C(C)C)[C@@H](C)O [Example 144, N-epsilon21-[2-(2-{2-[2-(2-{2-[(S)-4-Carboxy-4-(19-carboxyheptadecanoylamino)butyrylamino]ethoxy}ethoxy)acetylamino]ethoxy}ethoxy)acetyl]-[Glu14,His17,Lys21,Ser28,His35]-pramlintide] (H-KCNTATCATQRLAEFLHHSSK([AEEA-AEEA-γGlu-C20 diacid])NFGPILSPTNVGSHTY-NH2; disulfide 2-7)
> 200 µM	> 200 µM	> 200 µM	> 200 µM	1 µM (≈ 4.79 µg/mL)	1 µM (≈ 4.79 µg/mL)	1 µM (≈ 4.79 µg/mL)	1 µM (≈ 4.79 µg/mL)	CC[C@H](C)[C@H](NC(=O)[C@@H]1CCCN1C(=O)CNC(=O)[C@H](Cc1ccccc1)NC(=O)[C@H](CC(N)=O)NC(=O)[C@H](CCCCNC(=O)COCCOCCNC(=O)COCCOCCNC(=O)CC[C@H](NC(=O)CCCCCCCCCCCCCCCCCCC(=O)O)C(=O)O)NC(=O)[C@H](CO)NC(=O)[C@H](CO)NC(=O)[C@H](Cc1c[nH]cn1)NC(=O)[C@@H](NC(=O)[C@H](CC(C)C)NC(=O)[C@H](Cc1ccccc1)NC(=O)[C@H](CCC(=O)O)NC(=O)[C@H](C)NC(=O)[C@H](CC(C)C)NC(=O)[C@H](CCCNC(=N)N)NC(=O)[C@H](CCC(N)=O)NC(=O)[C@@H](NC(=O)[C@H](C)NC(=O)[C@@H]1CSSC[C@H](NC(=O)[C@@H](N)CCCCN)C(=O)N[C@@H](CC(N)=O)C(=O)N[C@@H]([C@@H](C)O)C(=O)N[C@@H](C)C(=O)N[C@@H]([C@@H](C)O)C(=O)N1)[C@@H](C)O)C(C)C)C(=O)N[C@@H](CC(C)C)C(=O)N[C@@H](CO)C(=O)N[C@@H](CCCNC(=N)N)C(=O)N[C@H](C(=O)N[C@@H](CC(N)=O)C(=O)N[C@H](C(=O)NCC(=O)N[C@@H](CO)C(=O)N[C@@H](Cc1c[nH]cn1)C(=O)N[C@H](C(=O)N[C@@H](Cc1ccc(O)cc1)C(N)=O)[C@@H](C)O)C(C)C)[C@@H](C)O [Example 147, N-epsilon21-[2-(2-{2-[2-(2-{2-[(S)-4-Carboxy-4-(19-carboxyheptadecanoylamino)butyrylamino]ethoxy}ethoxy)acetylamino]ethoxy}ethoxy)acetyl]-[Glu14,Lys21,Ser28,Arg29,His35]-pramlintide] (H-KCNTATCATQRLAEFLVHSSK([AEEA-AEEA-γGlu-C20 diacid])NFGPILSRTNVGSHTY-NH2; disulfide 2-7)
> 200 µM	> 200 µM	> 200 µM	> 200 µM	51 µM (≈ 243 µg/mL)	19 µM (≈ 90.5 µg/mL)	1 µM (≈ 4.76 µg/mL)	1 µM (≈ 4.76 µg/mL)	CC[C@H](C)[C@H](NC(=O)[C@@H]1CCCN1C(=O)CNC(=O)[C@H](Cc1ccccc1)NC(=O)[C@H](CC(N)=O)NC(=O)[C@H](CCCCNC(=O)COCCOCCNC(=O)COCCOCCNC(=O)CC[C@H](NC(=O)CCCCCCCCCCCCCCCCCCC(=O)O)C(=O)O)NC(=O)[C@H](CO)NC(=O)[C@H](CO)NC(=O)[C@H](Cc1c[nH]cn1)NC(=O)[C@H](Cc1c[nH]cn1)NC(=O)[C@H](CC(C)C)NC(=O)[C@H](Cc1ccccc1)NC(=O)[C@H](CCC(=O)O)NC(=O)[C@H](C)NC(=O)[C@H](CC(C)C)NC(=O)[C@H](CCCNC(=N)N)NC(=O)[C@H](CCC(N)=O)NC(=O)[C@@H](NC(=O)[C@H](C)NC(=O)[C@@H]1CSSC[C@H](NC(=O)[C@@H](N)CCCCN)C(=O)N[C@@H](CC(N)=O)C(=O)N[C@@H]([C@@H](C)O)C(=O)N[C@@H](C)C(=O)N[C@@H]([C@@H](C)O)C(=O)N1)[C@@H](C)O)C(=O)N[C@@H](CC(C)C)C(=O)N[C@@H](CO)C(=O)N[C@@H](CO)C(=O)N[C@H](C(=O)N[C@@H](CC(N)=O)C(=O)N[C@H](C(=O)NCC(=O)N[C@@H](CO)C(=O)N[C@@H](Cc1c[nH]cn1)C(=O)N[C@H](C(=O)N[C@@H](Cc1ccc(O)cc1)C(N)=O)[C@@H](C)O)C(C)C)[C@@H](C)O [Example 148, N-epsilon21-[2-(2-{2-[2-(2-{2-[(S)-4-Carboxy-4-(19-carboxyheptadecanoylamino)butyrylamino]ethoxy}ethoxy)acetylamino]ethoxy}ethoxy)acetyl]-[Glu14,His17,Lys21,Ser28,Ser29,His35]-pramlintide] (H-KCNTATCATQRLAEFLHHSSK([AEEA-AEEA-γGlu-C20 diacid])NFGPILSSTNVGSHTY-NH2; disulfide 2-7)
